Read-outs that look alike come from different tables or passages of the source.
Columns and labels:
white blood cells = assay: Immune cell selective uptake from blood cell mix (immune selectivity ratio method); format: cell-based, mammalian
Method: Freshly drawn heparinised blood or buffy coat preparations are used for the determination of immune cell partition ratios. Buffy coat preparations are preferred. These may be obtained from donor blood by simple centrifugation of whole blood (4795 g for 10 minutes). Following centrifugation, plasma is collected from the surface, after which immune cells are expressed from the donor bags along with the erythrocytes lying immediately below the leukocyte layer. This ensures high yields and a sufficient population of erythrocytes for partition. 5 ml of the resulting cell suspension are dispensed into T25 culture flasks. Substrates are added to a final concentration between 1 and 10 μM and the suspensions incubated at 37° C., in a 5% CO2 atmosphere. For analysis of uptake kinetics, samples are withdrawn at 0, 2, 5, 10, 30, 60, 90, 180, or 240 min after substrate addition. For screening purposes, samples are taken at 0 and 120 minutes. […]
Uptake of fluorescent compounds is monitored using fluorescence microscopy. Excitation and emission wavelengths depend of the fluorescence label in use. […]
Cell lysates are analysed using a HP 1100 HPLC System (Agilent Technologies, Waldbronn, Germany) with a Kromasil 3.5μ C18, 50×2.0 mm column and guard cartridge system (both, Phenomenex, Aschaffenburg, Germany) run at 30° C. […]
Masses are monitored according to the known or expected M/Z ratios. […]

lymphocytes = assay: Proliferation assay (BrdU ELISA, phytohemagglutanin-stimulated); format: cell-based, mammalian; conditions: for Ratio (2 h:72 h): IC50 at 2 h : IC50 at 72 h, lower = better uptake and release; for IC50: Lymphocyte
Description: Assay to determine the in vitro rate of, for example, lymphocyte proliferation. Lymphocytes are purified out of ant coagulated (CPDA, citrate or heparin) mammalian blood using the Lymphoprep™ system (supplier). Purified cells are counted using a hemocytometer following Trypan Blue staining, and a cell concentration of 1×10^6 cells/ml established in RPMi 1640 medium with 10% FCS and antibiotics as required (all from Biochrome). Following the addition of a cell proliferation stimulant, for example phytohemagglutanin (Sigma) at, for example an end concentration of 5 μg/ml, the cells are incubated with different concentrations of the to be investigated compound in 100 μl end volume in a 96-well microtiter plate in an incubator (37° C., 5% CO2, 95% humidity) for 72 h. Cell proliferation is quantified following BrdU incorporation for 16 h by ELISA and subsequent calorimetric development (Cell Proliferation ELISA BrdU (colorimetric) kit from Roche Diagnostics). The IC50 (μM) values are then calculated, and used to compare compound efficacy.
To determine the influence of the T-L-C modification on in vitro cellular drug uptake and pharmacology, the above assay is additionally modified and an additional “wash” step included. In addition to running the assay for 72 h with the compounds to be tested, the assay is also run for just 2 h, then compound is washed away in three serial washing steps using 200 μl of medium at each step, and the cells subsequently incubated for a further 70 h. […] The lower the number, the better the uptake and drug release from the T-L-C in the cells (see results in Table 4 for examples), and improvement over mycophenolic acid.

E. coli (DH5α) = assay: Testing of antibiotic activity (TC50, dilution assay, turbidity); format: cell-based; conditions: concentration that inhibits 50% of the growth
Method: The TC50 or MIC procedure for antibiotic sensitivity testing involves an antibiotic dilution assay, which can be performed in microtitre plates. A series of twofold dilutions of each antibiotic are made in the wells, and then all wells are inoculated with a standard amount of the same test organism. After incubation, growth in the presence of the various antibiotics is observed by measuring turbidity.
Bacteria: B. pumilus and E. coli (DH5α) Bacterial cultures are initiated from the plates for 2 to 3 weeks. After this time period bacteria are streaked out on new plates from the backups stored at −80° C. Due to the lack of resistance of the bacteria, new cultures are not to be initiated from an old plate or any liquid cultures derived from old plates. Growth medium (GM) (per liter): 10 g Bacto-tryptone, 5 g Bacto-yeast extract, 6 g HEPES (25 mM), 5.4 g NaCl, pH 7.3 Compound stocks 10 or 100 mM in DMSO stored at −20° C.
• 1. Grow B. pumilus from an LB agar plate in a flask (max. 10% volume) up to about 50 ml in growth medium (GM) • 2. Dilute overnight suspension 1:10 in GM • 3. Determine OD600 of diluted bacterial suspension • 4. Dilute bacterial suspension in GM to an OD600 of 0.03-0.04. (6 ml/plate) • 5. Add 200 μl GM to the outer wells (Row A, Row H, Column 1, Column 12) • 6. Add 100 μl GM to each well starting from C2, row 3. • 7. Controls: Wells B2-B4 growth control. Wells B6-B8 blank. Row C growth inhibition control. • 7.1. To wells B2-B4 add: 96 μl GM, 4 μl DMSO, and 100 μl bacterial suspension adjusted to an OD600 of 0.03-0.04. • 7.2. To wells B6-B8 add: 196 μl GM and 4 μl DMSO • 7.3. Dilute a 10 mM Compound 43 (positive control) stock to 800 μM (120 μl/plate) in GM. Add 100 μl of 800 μM Compound 43 solution to well C2. • 8. Samples • 8.1. Dilute the 10 or 100 mM stock solutions to 800 μM (250 μl/plate) in GM. • 8.2. Add 100 μl of 800 μM sample in duplicates to wells D2/E2 resp. F2/G2. • 8.3. 2-fold serial dilution of all samples and Azithromycin • 8.3.1. Rows C-G, Columns 2: Mix and transfer 100 μl from each row to Column 3, and continue until column 11. The remaining 100 μl out of column 11 are disposed. • 9. Add 100 μl of bacterial suspension (OD600 0.03-0.04) to each well from C2-G11. • 10. Incubate plates on shaker, 750 rpm, 37° C., until the growth controls have reached an OD600 of 0.6-0.8 (approximately 6-8 h).
11. Determine OD600 on plate reader.

HeLa or JURKAT = assay: Cytotoxicity assay (Alamar Blue) with guanosine rescue; format: cell-based
Method: HeLa cells (DSMZ, ACC 57) and Jurkat cells (DSMZ, ACC 282) in exponential growth phase are exposed for 3 days to test compounds. The number of surviving cells is then determined by the Alamar Blue assay (Serotec Inc.). This assay incorporates a fluorometric growth indicator based on detection of metabolic activity. Specifically, the system incorporates an oxidation-reduction indicator that fluoresces in response to chemical reduction of the growth medium resulting from cell growth. As cells grow in culture, innate metabolic activity results in a chemical reduction of the immediate surrounding environment. Continued growth maintains a reduced environment while inhibition of growth maintains an oxidized environment. […] Fluorescence is monitored at 560 nm (Exc.) and 590 nm Em.
HeLa cells (1×10^3) or JURKAT cells (1×10^3) are plated in 100 μl MEM medium (with Earle's salt; Biochrom KG) containing 10% FBS, 2 mM L-glutamine, and non-essential animo acids in 96-well plates and incubated at 37° C. and 5% CO2 atmosphere. […] The fluorescence is then measured as described above and the LD50 is determined based on a sigmoidal dose response regression. […] Any toxicity still detected can then be ascribed either to other biological effects of the of T-L-C conjugate of mycophenolic acid, or is due to the very high intracellular concentration of mycophenolic acid, following concentrative uptake into the cell.

[1] = read-out: IC50 (μM) at 2 h, 2 h with compound, washed away, further 70 h incubation
[2] = 72 h incubation with compound, read-out: IC50 (μM) at 72 h

SMILES	Ratio (2 h:72 h) (lymphocytes)	IC50 (lymphocytes; [1]) [µM]	IC50 (lymphocytes; [2]) [µM]	TC50 in E. coli (E. coli (DH5α)) [nM]	other results
COc1cc(C)c(/C(=C\C(C)=O)CC(N)C(=O)O)cc1OC (centres unmarked) [Compound 4]					uptake speed (white blood cells; fluorescent compounds, images during uptake): uptake is rapid
CC[C@H]1OC(=O)[C@H](C)[C@@H](C)[C@H](C)[C@@H](O[C@@H]2O[C@H](C)C[C@@H](N(C)CCOC(=O)CC/C(C)=C/Cc3c(O)c4c(c(C)c3OC)COC4=O)[C@@H]2N(C)C)[C@](C)(O)C[C@@H](C)CN(C)[C@H](C)[C@@H](O)[C@]1(C)O [Compound 74]	1.45	3.2	2.2		
CC[C@H]1OC(=O)[C@H](C)C(=O)[C@H](C)[C@@H](O[C@@H]2O[C@H](C)CC(N(C)C)[C@H]2O)[C@](C)(O)C[C@@H](C)CN(C)[C@H](C)[C@@H](O)[C@]1(C)O (some centres unmarked) [Compound 40]				>50000	
CCOC(=O)CC/C(C)=C/Cc1c(CC(=O)CCC(=O)O[C@@H]2C(N(C)C)C[C@@H](C)O[C@H]2O[C@@H]2[C@@H](C)[C@H](O[C@H]3C[C@@](C)(OC)[C@@H](O)[C@H](C)O3)[C@@H](C)C(=O)O[C@H](CC)[C@@](C)(O)[C@H](O)[C@@H](C)N(C)C[C@H](C)C[C@@]2(C)O)c2c(c(C)c1OC)COC2=O (some centres unmarked) [Compound 69]	1.9	2.66	1.4		
CC[C@H]1OC(=O)[C@H](C)[C@@H](OC2C[C@@](C)(OC)[C@@H](O)[C@H](C)O2)[C@H](C)[C@@H](OC2O[C@H](C)C[C@H](N(C)C)[C@H]2O)[C@](C)(O)C[C@@H](C)/C(=N/OCc2cc(=O)oc3cc(OC)c(OC)cc23)[C@H](C)[C@@H](O)[C@]1(C)O (some centres unmarked) [Compound 3]					intracellular distribution (white blood cells; polymorphonuclear cells, fluorescent image (FIG. 3)): even distribution with some concentration near the nucleus
CC[C@H]1OC(=O)[C@H](C)[C@@H](O[C@H]2C[C@@](C)(OC)[C@@H](O)[C@H](C)O2)[C@H](C)[C@@H](O[C@@H]2O[C@H](C)CC(N(C)C)[C@H]2OC(=O)CC/C(C)=C/Cc2c(O)c3c(c(C)c2OC)COC3=O)[C@](C)(O)C[C@@H](C)CN(C)[C@H](C)[C@@H](O)[C@]1(C)O (some centres unmarked) [Compound 67]	1.3	1.74	1.36		
CC[C@H]1OC(=O)[C@H](C)C(=O)[C@H](C)[C@@H](O[C@@H]2O[C@H](C)C[C@H](N(C)C)[C@H]2OC(=O)Cc2ccccc2Nc2c(Cl)cccc2Cl)[C@](C)(O)C[C@@H](C)CN(C)[C@H](C)[C@@H](O)[C@]1(C)O [Compound 53]				>50000	
CC[C@H]1OC(=O)[C@H](C)[C@@H](O[C@H]2C[C@@](C)(OC)[C@@H](O)[C@H](C)O2)[C@H](C)[C@@H](O[C@@H]2O[C@H](C)C[C@H](N(C)C)[C@H]2O)[C@](C)(O)C[C@@H](C)CN(C)[C@H](C)[C@@H](O)[C@]1(C)O [Compound 43, 9a-aza-9a-methyl-9-deoxo-9a-homoerythromycin A, reference compound]				2300	
CC[C@H]1OC(=O)[C@H](C)[C@@H](O[C@H]2C[C@@](C)(OC)[C@@H](O)[C@H](C)O2)[C@H](C)[C@@H](O[C@@H]2O[C@H](C)CC(N(C)C(=O)CN(C)CCO)[C@H]2O)[C@](C)(O)C[C@@H](C)CN(C)[C@H](C)[C@@H](O)[C@]1(C)O (some centres unmarked) [Compound 45]				>50000	
COc1c(C)c2c(c(O)c1C/C=C(\C)CCC(=O)O)C(=O)OC2 [Mycophenolic acid]					effect in the presence of guanosine (HeLa or JURKAT; 50 μM guanosine): completely removed; IC50 (HeLa or JURKAT; normal culture conditions): < 2000 nM

Reference: patent US20080145343A1, “Conjugates of biologically active compounds, methods for their preparation and use, formulation and pharmaceutical applications thereof” (priority 2002, published 2008)
